Test results from the supplement of paper PMC10627819.

Legend:
S. aureus Newman = test: Bliss interaction score (quartile over a dose matrix) (fitness difference); higher = more antagonism (negative = synergy)
Summary of the method: (§1)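 The Bliss score subtracts expected fitness, the product of the single-drug fitness values, from observed fitness. Fitness is plate-normalised OD595 at entry into stationary phase, relative to the robust no-drug mean and capped at 1, with single-drug fitness inferred from combinations. Summaries are quartiles over technical, biological and donor/recipient replicates.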

S. pneumoniae D39V [1] = test: as above
Summary of the method: as §1

B. subtilis 168 [2] = test: as above
Summary of the method: as §1

S. aureus DSM 20231 = test: as above
Summary of the method: as §1

S. pneumoniae D39V [3] = test: fitness (endpoint OD595 vs no drug) (fraction); higher = more growth
Summary of the method: (§2)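 Cultures at OD595 0.01 were dispensed into 384-well plates in TSB, LB Lennox or CY and incubated at 37 °C. Every 30 min for 14 h, OD595 was read and corrected by the first reading. Fitness is the optical density at entry into stationary phase relative to the robust mean of no-drug control wells, capped at 1.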

B. subtilis 168 [4] = test: as above
Summary of the method: as §2
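For Bliss interaction score (quartile over a dose matrix) in this document: first quartile when negative (synergy) and third quartile when positive (antagonism).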

CN(C)C(=O)C(CCN1CCC(O)(c2ccc(Cl)cc2)CC1)(c1ccccc1)c1ccccc1 [Loperamide] + COc1ccc(C[C@H](N)C(=O)N[C@H]2[C@@H](O)[C@H](n3cnc4c(N(C)C)ncnc43)O[C@@H]2CO)cc1 [Puromycin]
Details | Bliss interaction score
B. subtilis 168 [2] | -0.121
S. aureus DSM 20231 | -0.192
S. aureus Newman | -0.0477
S. pneumoniae D39V [1] | 0.0779

fitness
Details | partner 0.39 µg/mL | partner 0.78 µg/mL | partner 1 µg/mL | partner 1.56 µg/mL | partner 2 µg/mL | partner 4 µg/mL
B. subtilis 168 [4], first compound 25 µg/mL | 0.82 | 0.767 | – | 0.718 | – | –
B. subtilis 168 [4], first compound 50 µg/mL | 0.0429 | 0.038 | – | 0.0393 | – | –
B. subtilis 168 [4], first compound 100 µg/mL | 0.0261 | 0.0107 | – | 0.0233 | – | –
S. pneumoniae D39V [3], first compound 17.14 µg/mL | – | – | 0.999 | – | 0.965 | 0.872
S. pneumoniae D39V [3], first compound 34.28 µg/mL | – | – | 0.988 | – | 0.952 | 0.813

fitness, S. pneumoniae D39V [3], one replicate
Details | first compound 20 µg/mL | first compound 40 µg/mL | first compound 68.57 µg/mL | first compound 80 µg/mL
partner 1 µg/mL | 0.951 | 0.899 | 0.997 | 0.159
partner 2 µg/mL | 0.951 | 0.93 | 0.956 | 0.129
partner 4 µg/mL | 0.835 | 0.828 | 0.908 | 0.0785

CN(C)C(=O)C(CCN1CCC(O)(c2ccc(Cl)cc2)CC1)(c1ccccc1)c1ccccc1 [Loperamide] + C[n+]1ccc(-c2cc[n+](C)cc2)cc1 [Paraquat]
Details | Bliss interaction score
B. subtilis 168 [2] | -0.103
S. aureus DSM 20231 | 0.177
S. aureus Newman | 0.0662
S. pneumoniae D39V [1] | 0.0549

fitness
Details | partner 1.25 µg/mL | partner 1.5 µg/mL | partner 2.5 µg/mL | partner 3 µg/mL | partner 5 µg/mL | partner 6 µg/mL
B. subtilis 168 [4], first compound 25 µg/mL | 0.798 | – | 0.684 | – | 0.537 | –
B. subtilis 168 [4], first compound 50 µg/mL | 0.0367 | – | 0.0251 | – | 0.0432 | –
B. subtilis 168 [4], first compound 100 µg/mL | 0.0324 | – | 0.0267 | – | 0.0238 | –
S. pneumoniae D39V [3], first compound 17.14 µg/mL | – | 0.994 | – | 0.984 | – | 0.922
S. pneumoniae D39V [3], first compound 34.28 µg/mL | – | 0.972 | – | 0.973 | – | 0.883

fitness, S. pneumoniae D39V [3], one replicate
Details | first compound 20 µg/mL | first compound 40 µg/mL | first compound 68.57 µg/mL | first compound 80 µg/mL
partner 1.5 µg/mL | ≥ 1 | ≥ 1 | 0.934 | ≥ 1
partner 3 µg/mL | ≥ 1 | ≥ 1 | 0.931 | ≥ 1
partner 6 µg/mL | ≥ 1 | ≥ 1 | 0.853 | ≥ 1

CN(C)C(=O)C(CCN1CCC(O)(c2ccc(Cl)cc2)CC1)(c1ccccc1)c1ccccc1 [Loperamide] + Cc1cc(NS(=O)(=O)c2ccc(N)cc2)no1 [Sulfamethoxazol]
Details | Bliss interaction score
B. subtilis 168 [2] | -0.178
S. aureus DSM 20231 | -0.143
S. aureus Newman | 0.0631
S. pneumoniae D39V [1] | 0.0594

fitness
Details | partner 1 µg/mL | partner 2 µg/mL | partner 4 µg/mL
B. subtilis 168 [4], first compound 25 µg/mL | – | – | 0.857
B. subtilis 168 [4], first compound 100 µg/mL | – | 0.0238 | 0.156
S. pneumoniae D39V [3], first compound 17.14 µg/mL | 0.92 | 0.936 | 0.989
S. pneumoniae D39V [3], first compound 34.28 µg/mL | 0.953 | 0.95 | 0.998

fitness, one replicate
Details | first compound 20 µg/mL | first compound 25 µg/mL | first compound 40 µg/mL | first compound 50 µg/mL | first compound 68.57 µg/mL | first compound 80 µg/mL | first compound 100 µg/mL
B. subtilis 168 [4], partner 0.5 µg/mL | – | 0.0806 | – | 0.009 | – | – | 0.0009
S. pneumoniae D39V [3], partner 1 µg/mL | ≥ 1 | – | ≥ 1 | – | 0.967 | 0.249 | –
S. pneumoniae D39V [3], partner 2 µg/mL | ≥ 1 | – | ≥ 1 | – | 0.968 | 0.89 | –
S. pneumoniae D39V [3], partner 4 µg/mL | 0.941 | – | 0.942 | – | ≥ 1 | 0.752 | –

CN(C)C(=O)C(CCN1CCC(O)(c2ccc(Cl)cc2)CC1)(c1ccccc1)c1ccccc1 [Loperamide] + Cc1ncc([N+](=O)[O-])n1CCO [Metronidazole]
Details | Bliss interaction score
B. subtilis 168 [2] | 0.268
S. aureus DSM 20231 | 0.0627
S. aureus Newman | 0.064
S. pneumoniae D39V [1] | 0.0877

Details | fitness
B. subtilis 168 [4], first compound 25 µg/mL, partner 0.625 µg/mL | 0.918
B. subtilis 168 [4], first compound 25 µg/mL, partner 1.25 µg/mL | 0.891
B. subtilis 168 [4], first compound 25 µg/mL, partner 2.5 µg/mL | 0.895
B. subtilis 168 [4], first compound 100 µg/mL, partner 1.25 µg/mL | 0.214
B. subtilis 168 [4], first compound 100 µg/mL, partner 2.5 µg/mL | 0.203
S. pneumoniae D39V [3], first compound 17.14 µg/mL, partner 1.25 µg/mL | 0.983
S. pneumoniae D39V [3], first compound 17.14 µg/mL, partner 2.5 µg/mL | ≥ 1
S. pneumoniae D39V [3], first compound 17.14 µg/mL, partner 5 µg/mL | 0.99
S. pneumoniae D39V [3], first compound 20 µg/mL, partner 1.073 µg/mL | ≥ 1
S. pneumoniae D39V [3], first compound 20 µg/mL, partner 2.145 µg/mL | 0.921
S. pneumoniae D39V [3], first compound 20 µg/mL, partner 4.29 µg/mL | 0.973
S. pneumoniae D39V [3], first compound 34.28 µg/mL, partner 1.25 µg/mL | 0.99
S. pneumoniae D39V [3], first compound 34.28 µg/mL, partner 2.5 µg/mL | ≥ 1
S. pneumoniae D39V [3], first compound 34.28 µg/mL, partner 5 µg/mL | 0.979
S. pneumoniae D39V [3], first compound 40 µg/mL, partner 1.073 µg/mL | ≥ 1
S. pneumoniae D39V [3], first compound 40 µg/mL, partner 4.29 µg/mL | 0.96
S. pneumoniae D39V [3], first compound 80 µg/mL, partner 1.073 µg/mL | 0.938
S. pneumoniae D39V [3], first compound 80 µg/mL, partner 2.145 µg/mL | 0.898
S. pneumoniae D39V [3], first compound 80 µg/mL, partner 4.29 µg/mL | 0.95

S. pneumoniae D39V [3], first compound 68.57 µg/mL, one replicate
Details | fitness
partner 1.25 µg/mL | ≥ 1
partner 2.5 µg/mL | 0.944
partner 5 µg/mL | ≥ 1

CN(C)C(=O)C(CCN1CCC(O)(c2ccc(Cl)cc2)CC1)(c1ccccc1)c1ccccc1 [Loperamide] + Cc1onc(-c2ccccc2)c1C(=O)N[C@@H]1C(=O)N2[C@@H]1SC(C)(C)[C@@H]2C(=O)O [Oxacillin]
Details | Bliss interaction score
B. subtilis 168 [2] | -0.0924
S. aureus DSM 20231 | -0.0615
S. aureus Newman | 0.077
S. pneumoniae D39V [1] | -0.33

Details | fitness
B. subtilis 168 [4], first compound 25 µg/mL, partner 0.002 µg/mL | 0.749
B. subtilis 168 [4], first compound 25 µg/mL, partner 0.004 µg/mL | 0.697
B. subtilis 168 [4], first compound 50 µg/mL, partner 0.002 µg/mL | 0.0423
B. subtilis 168 [4], first compound 50 µg/mL, partner 0.004 µg/mL | 0.0371
B. subtilis 168 [4], first compound 50 µg/mL, partner 0.008 µg/mL | 0.0519
B. subtilis 168 [4], first compound 100 µg/mL, partner 0.002 µg/mL | 0.0346
B. subtilis 168 [4], first compound 100 µg/mL, partner 0.004 µg/mL | 0.0357
B. subtilis 168 [4], first compound 100 µg/mL, partner 0.008 µg/mL | 0.0283
S. pneumoniae D39V [3], first compound 17.14 µg/mL, partner 0.01 µg/mL | 0.976
S. pneumoniae D39V [3], first compound 17.14 µg/mL, partner 0.02 µg/mL | 0.878
S. pneumoniae D39V [3], first compound 20 µg/mL, partner 0.01 µg/mL | 0.99
S. pneumoniae D39V [3], first compound 20 µg/mL, partner 0.02 µg/mL | 0.869
S. pneumoniae D39V [3], first compound 20 µg/mL, partner 0.04 µg/mL | 0.156
S. pneumoniae D39V [3], first compound 34.28 µg/mL, partner 0.01 µg/mL | 0.908
S. pneumoniae D39V [3], first compound 40 µg/mL, partner 0.01 µg/mL | 0.859
S. pneumoniae D39V [3], first compound 40 µg/mL, partner 0.04 µg/mL | 0.109
S. pneumoniae D39V [3], first compound 80 µg/mL, partner 0.04 µg/mL | 0.0757

fitness, one replicate
Details | partner 0.01 µg/mL | partner 0.02 µg/mL | partner 0.04 µg/mL | partner 0.075 µg/mL | partner 0.15 µg/mL | partner 0.3 µg/mL
B. subtilis 168 [4], first compound 25 µg/mL | – | – | – | 0.0507 | 0.0511 | 0.0488
B. subtilis 168 [4], first compound 50 µg/mL | – | – | – | 0.0519 | 0.0509 | 0.0494
B. subtilis 168 [4], first compound 100 µg/mL | – | – | – | 0.0598 | 0.0504 | 0.0472
S. pneumoniae D39V [3], first compound 68.57 µg/mL | 0.979 | 0.901 | 0.618 | – | – | –
